Laboratory results published in PMC12207590, “Substrate Specificity of the Organic Cation Transporters MATE1 and MATE2K and Functional Overlap with OCT1 and OCT2” (Journal of Medicinal Chemistry, 2025).
Like-named read-outs stand apart in the source and are kept apart here.

What was measured:
MATE2K [1] = biological target: T1, MATE2K (Homo sapiens, UniProt Q86VL8); assay: Uptake ratio in MATE2K-overexpressing HEK293 cells vs empty vector (2.5 μM, 1 min, HPLC-MS/MS); assay type: cell-based; conditions: for MATE2K ratio in this study: Table S1; for MATE2: uptake ratio MATE2K-overexpressing vs empty-vector HEK293 cells, mean
T1 sequence (Q86VL8 1-566 isoform Q86VL8-3): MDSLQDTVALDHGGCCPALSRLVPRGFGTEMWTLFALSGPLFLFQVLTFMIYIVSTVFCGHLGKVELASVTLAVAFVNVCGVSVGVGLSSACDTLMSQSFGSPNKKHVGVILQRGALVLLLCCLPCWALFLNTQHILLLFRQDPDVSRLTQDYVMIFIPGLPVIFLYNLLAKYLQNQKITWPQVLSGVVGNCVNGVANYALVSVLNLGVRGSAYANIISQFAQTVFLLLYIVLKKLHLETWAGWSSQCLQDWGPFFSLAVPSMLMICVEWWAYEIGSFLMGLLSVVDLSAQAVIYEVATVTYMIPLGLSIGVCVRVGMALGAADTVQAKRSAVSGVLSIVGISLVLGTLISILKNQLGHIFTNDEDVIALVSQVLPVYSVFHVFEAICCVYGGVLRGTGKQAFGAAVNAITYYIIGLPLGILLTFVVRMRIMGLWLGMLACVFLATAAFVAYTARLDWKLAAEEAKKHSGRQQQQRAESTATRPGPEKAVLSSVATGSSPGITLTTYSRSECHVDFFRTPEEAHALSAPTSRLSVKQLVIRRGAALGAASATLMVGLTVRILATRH

MATE1 [2] = biological target: T2, MATE1 (Homo sapiens, UniProt Q96FL8); assay: Concentration-dependent uptake (Michaelis-Menten) via MATE1 in HEK293 cells; conditions: HEK293, 1 min, net uptake; for Km: read-out: MATE1 KM
T2 sequence (Q96FL8 1-570): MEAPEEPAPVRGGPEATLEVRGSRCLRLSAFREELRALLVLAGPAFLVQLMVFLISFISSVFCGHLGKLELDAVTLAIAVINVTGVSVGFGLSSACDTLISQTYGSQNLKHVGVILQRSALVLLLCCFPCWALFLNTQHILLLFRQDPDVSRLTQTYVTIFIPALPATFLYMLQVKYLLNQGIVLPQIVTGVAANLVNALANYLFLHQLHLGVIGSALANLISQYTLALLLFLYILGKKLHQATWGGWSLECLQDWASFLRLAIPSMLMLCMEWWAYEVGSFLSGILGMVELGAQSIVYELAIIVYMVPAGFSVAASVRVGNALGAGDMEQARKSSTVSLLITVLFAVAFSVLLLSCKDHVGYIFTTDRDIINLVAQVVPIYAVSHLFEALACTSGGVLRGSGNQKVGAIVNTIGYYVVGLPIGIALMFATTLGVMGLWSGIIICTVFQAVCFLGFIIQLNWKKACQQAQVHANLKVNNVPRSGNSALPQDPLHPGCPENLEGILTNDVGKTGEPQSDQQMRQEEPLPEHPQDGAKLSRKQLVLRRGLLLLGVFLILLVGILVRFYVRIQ

MATE1 [3] = biological target: T2, MATE1; assay: Uptake ratio in MATE1-overexpressing HEK293 cells vs empty vector (2.5 μM, 1 min, HPLC-MS/MS); assay type: cell-based; conditions: for MATE1 ratio in this study: Table S1; for MATE1: uptake ratio MATE1-overexpressing vs empty-vector HEK293 cells, mean
MATE2K [4] = biological target: T1, MATE2K; assay: Concentration-dependent uptake (Michaelis-Menten) via MATE2K in HEK293 cells; conditions: HEK293, 1 min, net uptake; for Km: read-out: MATE2K KM
hCMEC [5] = assay: TS DPH hCMEC (Table S2); assay type: cell-based, human; set-up: scale not given here
hCMEC [6] = assay: TS MDAI hCMEC (Table S2); assay type: cell-based, human; set-up: scale not given here
[7] = fold uptake over empty vector, 2.5 μM, 1 min

| Compound | MATE2K ratio (MATE2K [1]; [7]) | MATE1 ratio (MATE1 [3]; [7]) | TS DPH hCMEC (hCMEC [5]; Table S2) | TS MDAI hCMEC (hCMEC [6]; Table S2) | also measured |
| --- | --- | --- | --- | --- | --- |
| Nc1nc(=O)n([C@@H]2CS[C@H](CO)O2)cc1F [Emtricitabine] | 2.88 | 3.22 | – | – | MATE2K ratio in this study (MATE2K [1]; 2.5 μM, 1 min): 2.88; MATE1 Vmax (MATE1 [2]): 4523 pmol × mg protein^–1 × min^–1; Km (MATE1 [2]): 992 µM; MATE1 ratio in this study (MATE1 [3]; 2.5 μM, 1 min): 3.22; MATE2K Vmax (MATE2K [4]): 2634 pmol × mg protein^–1 × min^–1; Km (MATE2K [4]): 873 µM |
| NCCc1ccc(O)c(O)c1 [Dopamine] | 1.97 | 39.94 | – | – | MATE1 Vmax (MATE1 [2]): 10,148 pmol × mg protein^–1 × min^–1; Km (MATE1 [2]): 530 µM; MATE2K Vmax (MATE2K [4]): 1219 pmol × mg protein^–1 × min^–1; Km (MATE2K [4]): 961 µM |
| [H]/N=C(/N)N/C(=N/[H])NCCc1ccccc1 [Phenformin] | 3.01 | 19.54 | – | – | MATE1 Vmax (MATE1 [2]): 8451 pmol × mg protein^–1 × min^–1; Km (MATE1 [2]): 101 µM; MATE2K Vmax (MATE2K [4]): 1361 pmol × mg protein^–1 × min^–1; Km (MATE2K [4]): 73.1 µM |
| CN(C)CC(c1ccc(O)cc1)C1(O)CCCCC1 (stereo not shown) [Desvenlafaxine] | 1.09 | 1.12 | 0.49 | 0.61 | – |
| OCCOCCN1CCN(C2=Nc3ccccc3Sc3ccccc32)CC1 [Quetiapine] | 1.28 | 1.10 | 0.49 | 0.45 | MATE2 (MATE2K [1]; 2.5 μM, 1 min): 1.28; MATE1 (MATE1 [3]; 2.5 μM, 1 min): 1.1 |
| CNCCc1ccccn1 [Betahistine] | 1.19 | 1.90 | 0.73 | 0.86 | MATE2 (uptake ratio) (MATE2K [1]; mean ratio of uptake in MATE2K-overexpressing HEK293 cells vs empty vector, 2.5 μM, 1 min): 1.19; MATE1 (uptake ratio) (MATE1 [3]; mean ratio of uptake in MATE1-overexpressing HEK293 cells vs empty vector, 2.5 μM, 1 min): 1.9 |
| NCCc1ccc(Oc2ccc(O)cc2)c(I)c1 [3-Iodothyronamine (T1AM), 3-Iodothyronamine] | – | – | – | – | MATE2 (uptake ratio) (MATE2K [1]): 1.07; MATE2K ratio (MATE2K [1]): 1.07; MATE1 (uptake ratio) (MATE1 [3]): 1.36; MATE1 ratio (MATE1 [3]): 1.36; TS DPH hCMEC (hCMEC [5]): 0.86; TS MDAI hCMEC (hCMEC [6]): 1.11 |
| CCCOC(C(=O)OC1CCN(C)CC1)(c1ccccc1)c1ccccc1 [Propiverine] | 1.07 | 1.20 | 0.33 | 0.44 | MATE2 (MATE2K [1]; 2.5 μM, 1 min): 1.07; MATE1 (MATE1 [3]; 2.5 μM, 1 min): 1.2 |
| Cn1c(=O)[nH]c2ncn(C)c2c1=O [Paraxanthine] | 0.90 | 1.00 | 1.13 | 0.93 | – |
| CC[C@@H](CO)NCCN[C@@H](CC)CO [Ethambutol] | 2.78 | 14.14 | 0.98 | 0.95 | MATE2K ratio in this study (MATE2K [1]; 2.5 μM, 1 min): 2.78; MATE1 ratio in this study (MATE1 [3]; 2.5 μM, 1 min): 14.14; MATE1 ratio (MATE1 [3]; fold uptake over empty vector, 2.5 μM, 1 min, listed as ethambutol): 14 |
| Cc1nccn1CC1CCc2c(c3ccccc3n2C)C1=O (stereo not shown) [Ondansetron] | 1.24 | 1.19 | 0.22 | 0.22 | – |
| NC(=O)c1cnccn1 [Pyrazinamide] | 1.05 | 0.97 | 0.95 | 1.08 | MATE2 (MATE2K [1]; 2.5 μM, 1 min): 1.05; MATE1 (MATE1 [3]; 2.5 μM, 1 min): 0.97 |
| COc1cccc2c1C(=O)c1c(O)c3c(c(O)c1C2=O)C[C@@](O)(C(C)=O)C[C@@H]3O[C@H]1C[C@H](N)[C@H](O)[C@H](C)O1 [Daunorubicin] | – | – | – | – | MATE2K ratio (MATE2K [1]): 1.01; MATE1 ratio (MATE1 [3]): 1.21; TS DPH hCMEC (hCMEC [5]): 0.86; TS MDAI hCMEC (hCMEC [6]): 1.29 |
| C[C@@H](O)[C@H]1C(=O)N2C(C(=O)O)=C(S[C@@H]3CN[C@H](C(=O)N(C)C)C3)[C@H](C)[C@H]12 [Meropenem] | 1.33 | 1.32 | 1.20 | 1.00 | – |
| COc1ccc2c3c1O[C@H]1C[C@@H](O)C=C[C@@]31CCN(C)C2 [Galantamine] | – | – | 0.80 | – | MATE2K ratio (MATE2K [1]): 1.23; MATE1 ratio (MATE1 [3]): 1.18; TS MDAI hCMEC (hCMEC [6]): 0.98 |
| N[C@@H]1CON=C1O [Cycloserine (L), Cycloserine] | 1.10 | 1.19 | 1.34 | 0.76 | – |
